The numbers were not newly measured in patent US20050267212A1, “Omega-3 fatty acids in the treatment of depression” (priority 1997, published 2005), which cites them from elsewhere.

The data set addresses T1, cyclooxygenase-2 (Homo sapiens, UniProt P35354).
T1 sequence (P35354 18-604): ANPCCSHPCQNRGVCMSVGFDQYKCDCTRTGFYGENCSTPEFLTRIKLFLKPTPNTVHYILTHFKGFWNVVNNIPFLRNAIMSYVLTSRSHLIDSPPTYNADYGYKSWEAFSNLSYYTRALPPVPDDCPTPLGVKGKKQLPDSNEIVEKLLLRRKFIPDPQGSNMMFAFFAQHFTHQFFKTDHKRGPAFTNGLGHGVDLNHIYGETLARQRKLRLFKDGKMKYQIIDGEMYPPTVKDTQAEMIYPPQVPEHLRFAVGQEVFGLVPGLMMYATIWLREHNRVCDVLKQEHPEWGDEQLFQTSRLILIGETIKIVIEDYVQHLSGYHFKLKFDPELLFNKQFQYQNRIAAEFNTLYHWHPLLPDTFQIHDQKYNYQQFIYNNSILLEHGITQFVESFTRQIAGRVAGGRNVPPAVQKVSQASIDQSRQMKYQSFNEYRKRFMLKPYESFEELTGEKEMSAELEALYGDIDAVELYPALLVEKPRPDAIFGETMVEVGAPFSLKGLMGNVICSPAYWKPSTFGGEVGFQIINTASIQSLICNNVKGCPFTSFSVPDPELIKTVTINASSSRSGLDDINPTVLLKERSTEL
Conditions: cultured human mast cells.

Structures are written as SMILES.

For `CC/C=C\C/C=C\C/C=C\C/C=C\C/C=C\CCCC(=O)O` [EPA, eicosapentanoic acid], the “effect on cyclooxygenase-2” value is “direct inhibition”.
